Measured values as given in US11213516B2, “Intravaginally applicable devices comprising antiviral compounds” (AICURIS ANTI-INFECTIVE CURES GMBH, priority 2017, dated 2022).
“And” between values parts separate entries of the source, which are not always exact repeats. Equal values may be shown once. Read-outs that look alike come from different tables or passages of the source. Marks after values point to notes of the source that are not given here.

How the values were obtained:
Format in all cases: in vivo, Cynomolgus monkeys
[1] = Safety and tolerance of Pritelivir loaded rings (clinical signs, body weights); conditions: single vaginal doses as rings: 40 or 240 mg free base, 49.6 or 297 mg mesylate
Method: (§1) The study was performed in four single dose phases with 28-day sampling period after Phases 1 and 2 (7-day washout period between doses). Vaginal rings were investigated for Pritelivir free base and Pritelivir mesylate salt at two dose levels per formulation. The test items were applied as vaginal ring in Phases 1 and 2 to female monkeys. The study design is below in the Table 3.
The study was designed to obtain information on the time-course of unchanged test compound concentrations in plasma and vaginal fluid/tissue, following single intravaginal administration of rings to female Cynomolgus monkeys. Objectives of this study were to determine the safety and tolerance of Pritelivir loaded rings, as well as systemic and local exposure (plasma, vaginal fluid and vaginal and vulval tissue, respectively). Local exposures were compared with in vitro efficacy data of Pritelivir to get an idea on initial pharmacokinetic/pharmacodynamic (PK/PD) parameters for vaginal rings, i.e. to assess the potential ability of a Pritelivir loaded ring to suppress viral replication in the target tissue. Table 9 gives an overview on the EC50 values of Pritelivir on HSV-1 and HSV-2 Data source: Field, H. J., et al., Baseline sensitivity of HSV-1 and HSV-2 clinical isolates and defined acyclovir-resistant strains to the helicase-primase inhibitor pritelivir. Antiviral Res, 2013. 100(2): p. 297-9. […]

[2] = Vaginal tissue (biopsy) concentration after intravaginal administration of vaginal ring; conditions: 6-fold higher dose; Day 28
Method: as §1
Vulval and vaginal biopsies were taken from all animals at the following times in relation to dosing.
For the sampling biopsies were taken with a suitable biopsy instrument. Biopsy samples were snap frozen on dry ice following collection and stored deep frozen (−20° C. or below) until analysis.
(§2) After suitable dilution, plasma and vaginal samples were analyzed on UPLC system Waters Acquity UPLC-HSS PFP column with 1.8 μm particles (100×2.1 mm) by gradient elution using 0.1% formic acid and methanol containing 0.1% formic acid. For detection, a time-of-flight mass spectrometer (Xevo GS-2 QTOF, Waters) was used operating in positive ionization mode (MSe analysis). The samples were analyzed for their content of Pritelivir free base.
Vaginal and vulval biopsies were taken 28 Days after administration of intravaginal rings. As biopsies were not weighed prior extraction, weights were estimated based on data from similar investigations using the same settings for biopsies. […]

[3] = Plasma concentration after intravaginal administration of vaginal ring
Method: as §1
Venous blood samples were taken from all animals at the following times in relation to dosing.
• Blood sample site Femoral site • Blood volume 1.0 mL • Anticoagulant For phase 1 samples, Day 1-3 only, blood was sampled into standard HLS vials containing lithium heparin and 20 μL aqueous phosphoric acid (3.5 molar). Thereafter, blood was collected into tubes containing lithium heparin only. Plasma was obtained from all samples by centrifugation. Samples were appropriately labeled and stored deep frozen (−20° C. or below) until analysis • Total no. of blood samples 350 Vaginal Fluid Sampling
as §2
The study was designed to obtain information on the time-course of unchanged test compound concentrations in plasma and vaginal fluid/tissue, following single intravaginal administration of rings to female Cynomolgus monkeys. Objectives of this study were to determine the safety and tolerance of Pritelivir loaded rings, as well as systemic and local exposure (plasma, vaginal fluid and vaginal and vulval tissue, respectively). Local exposures were compared with in vitro efficacy data of Pritelivir to get an idea on initial pharmacokinetic/pharmacodynamic (PK/PD) parameters for vaginal rings, i.e. to assess the potential ability of a Pritelivir loaded ring to suppress viral replication in the target tissue. Table 9 gives an overview on the EC50 values of Pritelivir on HSV-1 and HSV-2 Data source: Field, H. J., et al., Baseline sensitivity of HSV-1 and HSV-2 clinical isolates and defined acyclovir-resistant strains to the helicase-primase inhibitor pritelivir. Antiviral Res, 2013. 100(2): p. 297-9. EC50=50% effective concentration.

[4] = female, cynomolgus monkey, plasma, other: intravaginal (vaginal ring), 40 mg, ring 40 mg free base, Phase 1 Group 1, group mean, read-out: Plasma concentration of Pritelivir free base, Mean
[5] = female, cynomolgus monkey, plasma, other: intravaginal (vaginal ring), 40 mg, ring 40 mg free base, Phase 1 Group 1, individual animals, read-out: Plasma concentration of Pritelivir free base
[6] = female, cynomolgus monkey, plasma, other: intravaginal (vaginal ring), 240 mg, ring 240 mg free base, Phase 2 Group 1, group mean, read-out: Plasma concentration of Pritelivir free base, Mean
[7] = female, cynomolgus monkey, plasma, other: intravaginal (vaginal ring), 240 mg, ring 240 mg free base, Phase 2 Group 1, individual animals, read-out: Plasma concentration of Pritelivir free base

Question: Which “Adverse findings for clinical signs or body weights” value [1] does the source give for `Cc1nc(N(C)C(=O)Cc2ccc(-c3ccccn3)cc2)sc1S(N)(=O)=O` [Pritelivir free base] here?
Answer: did not result in any adverse findings

Question: What about the “Increase of vaginal tissue concentrations, Phase 2 vs Phase 1” value [2] of the same compound?
Answer: 2 fold

Question: And the “All plasma concentrations of Pritelivir” value ([3]; Phases 1 and 2, up to 28 Days, all rings)?
Answer: < 132 nM and < 54 μg/L

Question: And the concentration at 0.0417 d ([3]; female, cynomolgus monkey, plasma, other: intravaginal (vaginal ring), 40 mg, ring 40 mg free base, Phase 1 Group 1, 0.0417 d, group mean, read-out: Plasma concentration of Pritelivir free base, Mean)?
Answer: 3.43 ng/mL

Question: And the concentration at 0.0417 d ([3]; female, cynomolgus monkey, plasma, other: intravaginal (vaginal ring), 40 mg, ring 40 mg free base, Phase 1 Group 1, 0.0417 d, individual animals, read-out: Plasma concentration of Pritelivir free base)?
Answer: 2.44 ng/mL

Question: And the concentration at 0.167 d [3, 4]?
Answer: 5.61 ng/mL

Question: And the concentration at 0.167 d [3, 5]?
Answer: 2.38 ng/mL

Question: What about the concentration at 0.333 d [3, 4] of the same compound?
Answer: 6.4 ng/mL

Question: What about the concentration at 0.333 d [3, 5] of the same compound?
Answer: 2.22 ng/mL

Question: What about the concentration at 4 d [3, 4] of the same compound?
Answer: 3.86 ng/mL

Question: What about the concentration at 4 d [3, 5] of the same compound?
Answer: 3.21 ng/mL

Question: What about the concentration at 7 d [3, 4] of the same compound?
Answer: 3.66 ng/mL

Question: And the concentration at 7 d [3, 5]?
Answer: 3.55 ng/mL

Question: And the concentration at 10 d [3, 4]?
Answer: 3.36 ng/mL

Question: What about the concentration at 10 d [3, 5] of the same compound?
Answer: 3.92 ng/mL

Question: What about the concentration at 14 d [3, 4] of the same compound?
Answer: 3.31 ng/mL

Question: And the concentration at 14 d [3, 5]?
Answer: 2.81 ng/mL

Question: And the concentration at 17 d [3, 4]?
Answer: 3.2 ng/mL

Question: And the concentration at 17 d [3, 5]?
Answer: 2.64 ng/mL

Question: What about the concentration at 21 d [3, 4] of the same compound?
Answer: 2.91 ng/mL

Question: What about the concentration at 21 d [3, 5] of the same compound?
Answer: 3 ng/mL

Question: And the concentration at 24 d [3, 4]?
Answer: 2.99 ng/mL

Question: What about the concentration at 24 d [3, 5] of the same compound?
Answer: 3.21 ng/mL

Question: And the concentration at 28 d [3, 4]?
Answer: 2.79 ng/mL

Question: What about the concentration at 28 d [3, 5] of the same compound?
Answer: 2.6 ng/mL

Question: And the concentration at 0.0833 d ([3]; female, cynomolgus monkey, plasma, other: intravaginal (vaginal ring), 240 mg, ring 240 mg free base, Phase 2 Group 1, 0.0833 d, group mean, read-out: Plasma concentration of Pritelivir free base, Mean)?
Answer: 3.68 ng/mL

Question: And the concentration at 0.0833 d ([3]; female, cynomolgus monkey, plasma, other: intravaginal (vaginal ring), 240 mg, ring 240 mg free base, Phase 2 Group 1, 0.0833 d, individual animals, read-out: Plasma concentration of Pritelivir free base)?
Answer: 4.41 ng/mL

Question: And the concentration at 0.167 d [3, 6]?
Answer: 4.58 ng/mL

Question: And the concentration at 0.333 d [3, 6]?
Answer: 5.87 ng/mL

Question: And the concentration at 3 d ([3]; female, cynomolgus monkey, plasma, other: intravaginal (vaginal ring), 240 mg, ring 240 mg free base, Phase 2 Group 1, 3 d, individual animals, read-out: Plasma concentration of Pritelivir free base)?
Answer: 26.8 ng/mL

Question: What about the concentration at 4 d [3, 7] of the same compound?
Answer: 26 ng/mL

Question: What about the concentration at 7 d [3, 7] of the same compound?
Answer: 16.4 ng/mL

Question: And the concentration at 10 d [3, 7]?
Answer: 9.46 ng/mL

Question: And the concentration at 14 d [3, 7]?
Answer: 9.48 ng/mL

Question: What about the concentration at 17 d [3, 7] of the same compound?
Answer: 10.8 ng/mL

Question: And the concentration at 21 d [3, 7]?
Answer: 7.78 ng/mL

Question: And the concentration at 24 d [3, 7]?
Answer: 9.71 ng/mL

Question: And the concentration at 28 d [3, 7]?
Answer: 12.7 ng/mL

Question: And the “Plasma concentration of Pritelivir free base” value ([3]; ring 40 mg free base, Phase 1 Group 1, 0 d (pre-dose), individual animals)?
Answer: 2.70 ^a μg/L

Question: What about the “Plasma concentration of Pritelivir free base” value ([3]; ring 40 mg free base, Phase 1 Group 1, 0.0417 d, individual animals) of the same compound?
Answer: 4.73 ^ μg/L and 3.11 ^a μg/L

Question: What about the “Plasma concentration of Pritelivir free base, Mean” value ([3]; ring 40 mg free base, Phase 1 Group 1, 0.0833 d, group mean) of the same compound?
Answer: 5.28 ^ μg/L
